Where two headings read alike, the source gives them in different places.
Legend:
NCI-H522 [1] = test system: NCI-H522
SF-539 = test: cells; conditions: Homo sapiens
T-47D = conditions: for Mean Optical Densities / Percent Growth: T-47D
MDA-MB-231/ATCC = test: cells; conditions: Homo sapiens
HOP-92 = test: cells; conditions: Homo sapiens
NCI-H522 [2] = test: cells; conditions: Homo sapiens
OVCAR-8 [3] = test: cells; conditions: Homo sapiens
NCI-H226 = test: cells; conditions: Homo sapiens
U251 = test: cells; conditions: Homo sapiens
HL-60(TB) = conditions: for Mean Optical Densities / Percent Growth: HL-60(TB)
OVCAR-8 [4] = test system: OVCAR-8
HOP-62 = test: cells; conditions: Homo sapiens
[5] = UACC-257, log10 concentration −4.0
[6] = UACC-257, log10 concentration −5.0
[7] = UACC-257, log10 concentration −6.0
[8] = UACC-257, log10 concentration −7.0
[9] = UACC-257, log10 concentration −8.0
[10] = SK-OV-3, log10 concentration −4.0
[11] = SK-OV-3, log10 concentration −5.0
[12] = SK-OV-3, log10 concentration −6.0
[13] = SK-OV-3, log10 concentration −7.0
[14] = SK-OV-3, log10 concentration −8.0
[15] = NCI-H522, log10 concentration −4.0
[16] = NCI-H522, log10 concentration −5.0
[17] = NCI-H522, log10 concentration −6.0
[18] = NCI-H522, log10 concentration −7.0
[19] = NCI-H522, log10 concentration −8.0
[20] = SK-MEL-2, log10 concentration −4.0
[21] = SK-MEL-2, log10 concentration −5.0
[22] = SK-MEL-2, log10 concentration −6.0
[23] = SK-MEL-2, log10 concentration −7.0
[24] = SK-MEL-2, log10 concentration −8.0
[25] = SNB-75, log10 concentration −4.0
[26] = SNB-75, log10 concentration −5.0
[27] = SNB-75, log10 concentration −6.0
[28] = SNB-75, log10 concentration −7.0
[29] = SNB-75, log10 concentration −8.0
[30] = NCI-H23, log10 concentration −4.0
[31] = NCI-H23, log10 concentration −5.0
[32] = NCI-H23, log10 concentration −6.0
[33] = NCI-H23, log10 concentration −7.0
[34] = NCI-H23, log10 concentration −8.0
[35] = MOLT-4, log10 concentration −4.0
[36] = MOLT-4, log10 concentration −6.0
[37] = MOLT-4, log10 concentration −7.0
[38] = MOLT-4, log10 concentration −8.0
[39] = OVCAR-8, log10 concentration −4.0
[40] = OVCAR-8, log10 concentration −5.0
[41] = OVCAR-8, log10 concentration −6.0
[42] = OVCAR-8, log10 concentration −7.0
[43] = OVCAR-8, log10 concentration −8.0

## CC(C)c1cnn2c(NCc3ccccc3)cc(N[C@@H](CO)[C@H](O)CO)nc12 [ICEC0318, (3S)-3-(7-(Benzylamino)-3-isopropylpyrazolo[1,5-a]pyrimidin-5-ylamino)butane-1,2,4-triol]
UACC-257; UACC-257 (Melanoma)
  TGI: 3.88E−5
UACC-257; [5]
  Mean Optical Densities: 0.848
  Percent Growth: −4%
UACC-257; [6]
  Mean Optical Densities: 0.933
  Percent Growth: 5%
UACC-257; [7]
  Mean Optical Densities: 0.948
  Percent Growth: 7%
UACC-257; [8]
  Mean Optical Densities: 1.891
  Percent Growth: 100%
UACC-257; [9]
  Mean Optical Densities: 1.906
  Percent Growth: 102%
SK-OV-3; SK-OV-3 (Ovarian Cancer)
  TGI: >1.00E−4
SK-OV-3; [10]
  Mean Optical Densities: 0.799
  Percent Growth: 9%
SK-OV-3; [11]
  Mean Optical Densities: 0.860
  Percent Growth: 17%
SK-OV-3; [12]
  Mean Optical Densities: 0.903
  Percent Growth: 23%
SK-OV-3; [13]
  Mean Optical Densities: 1.701
  Percent Growth: 132%
SK-OV-3; [14]
  Mean Optical Densities: 1.504
  Percent Growth: 105%
NCI-H522 [1]; NCI-H522 (Non-Small Cell Lung Cancer)
  TGI: 2.13E−6
NCI-H522 [1]; [15]
  Mean Optical Densities: 0.741
  Percent Growth: −17%
NCI-H522 [1]; [16]
  Mean Optical Densities: 0.640
  Percent Growth: −29%
NCI-H522 [1]; [17]
  Mean Optical Densities: 1.075
  Percent Growth: 14%
NCI-H522 [1]; [18]
  Mean Optical Densities: 2.156
  Percent Growth: 99%
NCI-H522 [1]; [19]
  Mean Optical Densities: 2.185
  Percent Growth: 101%
SF-539; SF-539
  GI50: 199 nM
SF-539; SF-539, read-out: LC50
  CC50: 6850 nM
SK-MEL-2; SK-MEL-2 (Melanoma)
  TGI: 8.22E−5
SK-MEL-2; [20]
  Mean Optical Densities: 1.061
  Percent Growth: −1%
SK-MEL-2; [21]
  Mean Optical Densities: 1.218
  Percent Growth: 12%
SK-MEL-2; [22]
  Mean Optical Densities: 1.290
  Percent Growth: 18%
SK-MEL-2; [23]
  Mean Optical Densities: 2.275
  Percent Growth: 99%
SK-MEL-2; [24]
  Mean Optical Densities: 2.282
  Percent Growth: 100%
T-47D; T-47D (Breast Cancer)
  TGI: 2.55E−6
T-47D; log10 concentration −4.0
  Mean Optical Densities: 0.479
  Percent Growth: −12%
T-47D; log10 concentration −5.0
  Mean Optical Densities: 0.516
  Percent Growth: −5%
T-47D; log10 concentration −6.0
  Mean Optical Densities: 0.565
  Percent Growth: 3%
T-47D; log10 concentration −7.0
  Mean Optical Densities: 1.199
  Percent Growth: 94%
T-47D; log10 concentration −8.0
  Mean Optical Densities: 1.266
  Percent Growth: 103%
SNB-75; SNB-75 (CNS Cancer)
  TGI: 4.82E−7
SNB-75; [25]
  Mean Optical Densities: 0.072
  Percent Growth: −83%
SNB-75; [26]
  Mean Optical Densities: 0.162
  Percent Growth: −62%
SNB-75; [27]
  Mean Optical Densities: 0.226
  Percent Growth: −47%
SNB-75; [28]
  Mean Optical Densities: 0.911
  Percent Growth: 101%
SNB-75; [29]
  Mean Optical Densities: 0.848
  Percent Growth: 88%
MDA-MB-231/ATCC; MDA-MB-231
  GI50: 438 nM
MDA-MB-231/ATCC; MDA-MB-231, read-out: LC50
  CC50: > 100000 nM
HOP-92; HOP-92
  GI50: 369 nM
HOP-92; HOP-92, read-out: LC50
  CC50: > 100000 nM
NCI-H23; NCI-H23 (Non-Small Cell Lung Cancer)
  TGI: >1.00E−4
NCI-H23; [30]
  Mean Optical Densities: 0.562
  Percent Growth: 1%
NCI-H23; [31]
  Mean Optical Densities: 0.563
  Percent Growth: 1%
NCI-H23; [32]
  Mean Optical Densities: 0.633
  Percent Growth: 6%
NCI-H23; [33]
  Mean Optical Densities: 1.639
  Percent Growth: 81%
NCI-H23; [34]
  Mean Optical Densities: 1.802
  Percent Growth: 93%
NCI-H522 [2]; NCI-H522
  GI50: 375 nM
NCI-H522 [2]; NCI-H522, read-out: LC50
  CC50: > 100000 nM
OVCAR-8 [3]; OVCAR-8
  GI50: 340 nM
OVCAR-8 [3]; OVCAR-8, read-out: LC50
  CC50: > 100000 nM
MOLT-4; MOLT-4 (Leukemia)
  TGI: >1.00E−4
MOLT-4; [35]
  Mean Optical Densities: 0.449
  Percent Growth: 15%
MOLT-4; MOLT-4, log10 concentration −5.0
  Mean Optical Densities: 0.329
MOLT-4; [36]
  Mean Optical Densities: 0.368
  Percent Growth: 5%
MOLT-4; [37]
  Mean Optical Densities: 0.987
  Percent Growth: 82%
MOLT-4; [38]
  Mean Optical Densities: 1.072
  Percent Growth: 92%
NCI-H226; NCI-H226
  GI50: 272 nM
NCI-H226; NCI-H226, read-out: LC50
  CC50: > 100000 nM
U251; U-251
  GI50: 261 nM
U251; U-251, read-out: LC50
  CC50: > 100000 nM
HL-60(TB); HL-60(TB) (Leukemia)
  TGI: 6.07E−7
HL-60(TB); log10 concentration −4.0
  Mean Optical Densities: 0.495
  Percent Growth: −2%
HL-60(TB); log10 concentration −5.0
  Mean Optical Densities: 0.484
  Percent Growth: −4%
HL-60(TB); log10 concentration −6.0
  Mean Optical Densities: 0.407
  Percent Growth: −19%
HL-60(TB); log10 concentration −7.0
  Mean Optical Densities: 0.932
  Percent Growth: 69%
HL-60(TB); log10 concentration −8.0
  Mean Optical Densities: 1.084
  Percent Growth: 94%
OVCAR-8 [4]; OVCAR-8 (Ovarian Cancer)
  TGI: >1.00E−4
OVCAR-8 [4]; [39]
  Mean Optical Densities: 0.723
  Percent Growth: 10%
OVCAR-8 [4]; [40]
  Mean Optical Densities: 0.810
  Percent Growth: 16%
OVCAR-8 [4]; [41]
  Mean Optical Densities: 0.803
  Percent Growth: 15%
OVCAR-8 [4]; [42]
  Mean Optical Densities: 1.975
  Percent Growth: 89%
OVCAR-8 [4]; [43]
  Mean Optical Densities: 2.165
  Percent Growth: 101%
HOP-62; HOP-62
  GI50: 243 nM
HOP-62; HOP-62, read-out: LC50
  CC50: > 100000 nM

Reference: patent publication US8067424B2, “Selective inhibitors for cyclin-dependent kinases” (Emory University, priority 2007, dated 2011)
